Measurements reported in patent publication US12616673B2 (priority 2020, dated 2026).

System: LC3 in MOLM-13 cells
Assay: Autophagy activation: LC3 Western blot and confocal microscopy
Conditions: 48 hours in culture
Description: C MOLM-13 cells were treated as in FIG. 1A for 24 or 48 hours. […] D The same cells analysed by Western blot in C were also assessed by confocal microscopy analysis to highlight the LC3 dots (in green); the DNA is highlighted in blue by the Hoechst dye.
After being deposited on a slide via cytospin, the cells were fixed with 4% paraformaldehyde for 7 min, permeabilized with 0.1% TritonX100 in PBS/1% BSA for 5 min and stained with the primary anti-FLT3 (rabbit monoclonal, FLT3 (8F2), #3462, Cell Signaling Technologies, Danvers, MA, USA) or anti-calnexin (CNX, rabbit polyclonal AB22595, AbCam, Cambridge, UK) or anti-calreticulin (CRT, rabbit polyclonal AB2907, AbCam, Cambridge, UK) or anti-LC3 (LC3B Antibody #2775) antibodies, and then with an Alexa Fluor-488 secondary anti-rabbit IgG antibody Molecular Probes, ThermoFisher Scientific, Waltham, MA, USA); the DNA was detected with the TOPRO-3 (Molecular Probes, ThermoFisher Scientific, Waltham, MA, USA) or Hoechst dye (Molecular Probes, ThermoFisher Scientific, Waltham, MA, USA) and the slides were mounted with the Vectashield medium (Vector Laboratories, Burlingame, CA, USA). The images were acquired with a Leica confocal laser scanning microscope TCS SP2 at 40× magnification or with a Zeiss LSM900 at 63× magnification. The images were analysed using the Leica Confocal software (Leica, Milan, Italy) or the Zeiss Zen Blue software. […]

**Q.** `CC1=C(/C=C/C(C)=C/C=C/C(C)=C/C(=O)O)C(C)(C)CCC1` [R, all-trans retinoic acid] was tested. Which “autophagy activation (LC3 activity, LC3-II/LC3-I)” value did it give?
**A.** Its value is “slight increase in LC3 activity”.
